{
  "source": "patent US10786505B2",
  "about": "“Administration of NEDD8-activating enzyme inhibitor and chemotherapeutic agents” (Millennium Pharmaceuticals, Inc., priority 2013, dated 2020)",
  "type_in_all_cases": "in vivo, mice",
  "key": {"[1]": {"system": "PHTX02B breast xenograft model", "test": "Combination of docetaxel and MLN4924 in PHTX02B xenograft model", "settings": "for average tumor volume day 21: PHTX02B xenograft", "excerpt": "The PHTX02B breast xenograft model was established from a patient-derived tumor collected during surgery from a person with invasive ductal carcinoma classified as triple negative breast cancer (ER−/PR−/Her2−) by IHC. PHTX02B tumor fragments (approximately 2×2×3 mm^3) are implanted into the subcutaneous space in the right dorsal flank of female SCID-NOD mice (age 5-7 weeks, Jackson Laboratory, Bar Harbor, Me.) using a 13-gauge trocar.\n(§1) Docetaxel (Henry Schein, Inc., Pittsburgh Pa., Qilu Pharmaceutical Co., Ltd., Jinan, Shandong, China, and Sanofi-Aventis) is formulated in 0.9% saline and administered by intravenous injection (IV) once weekly (QW) at 5 mg/kg or 10 mg/kg.\n(§2) Tumors are measured twice weekly using a vernier caliper. Tumor volumes are calculated using standard procedures (0.5×(length×width^2)). […] Tumor size and body weight are measured approximately twice a week for the duration of the study. Mice are euthanized when their tumor volume reached 10% of their body weight, or when the average tumor volume of a treatment or control group reached approximately 2000 mm^3. Tumor growth continued to be monitored after the dosing period in some studies. Average tumor volume is reported as a function of time for selected groups of selected studies in Figures A, B, and C.\n(§3) Measurements from day 0 to 18, 21 or 22 are analyzed as specified in Tables 4-9. All tumor volumes have a value of 1 added to them before log10 transformation. For each animal, the log tumor volume at day 0 is subtracted from the log tumor volume on the subsequent days. This difference vs. time is used to calculate an area under the curve (AUC) for each animal using the trapezoid rule. […] The synergy score for the combination of agents A and B is defined as 100*(mean(AUCAB)−mean(AUCA)−mean(AUCB)+mean(AUCctl))/mean(AUCctl): where AUCAB, AUCA, AUCB, and AUCctl are the AUC values for animals in the combination group, the A group, the B group, and the control group, respectively. The standard error of the synergy score is computed based on the variation in the AUC values among the animals. […] If the P-value is above 0.05, then the combination is considered to be additive. If the P-value is below 0.05, and the synergy score is less than zero, then the combination is considered to be synergistic. […] Otherwise, the combination is classified as antagonistic."}, "LU1143 xenograft model": {"system": "LU1143 xenograft model", "test": "Combination of docetaxel or carboplatin and MLN4924 in LU1143 xenograft model", "settings": "45 mg/kg MLN4924 BID SC", "description": "as §1\n(§4) Carboplatin (CARBOplatin Injection, Hospira, Inc., Qilu Pharmaceutical Co., Ltd. Jinan, Shandong, China, and Teva Gry-Pharma GmbH, Ulm, Germany) is formulated in 0.9% saline and administered by IP injection once weekly (QW) at 50 mg/kg. The once weekly schedule is also described as every 7 days (Q7D).\nas §2\nMeasurements from day 0 to 18, 21 or 22 are analyzed as specified in Tables 4-9. All tumor volumes have a value of 1 added to them before log10 transformation. For each animal, the log tumor volume at day 0 is subtracted from the log tumor volume on the subsequent days. This difference vs. time is used to calculate an area under the curve (AUC) for each animal using the trapezoid rule. […] The synergy score for the combination of agents A and B is defined as 100*(mean(AUCAB)−mean(AUCA)−mean(AUCB)+mean(AUCctl))/mean(AUCctl): where AUCAB, AUCA, AUCB, and AUCctl are the AUC values for animals in the combination group, the A group, the B group, and the control group, respectively. The standard error of the synergy score is computed based on the variation in the AUC values among the animals. […] If the P-value is above 0.05, then the combination is considered to be additive. […]"}, "PHTX02B xenograft model": {"system": "PHTX02B xenograft model", "test": "Combination of gemcitabine and MLN4924 in PHTX02B xenograft model", "description": "(§5) The PHTX02B breast xenograft model was established from a patient-derived tumor collected during surgery from a person with invasive ductal carcinoma classified as triple negative breast cancer (ER-/PR-/Her2-) by IHC. […] Gemcitabine (Gemzar, Henry Schein, Inc, Pittsburgh Pa., and Myoderm Medical, Norristown, Pa.) is formulated in 0.9% saline and administered by intraperitoneal injection (IP) q3Dx4 (every 3 days for a total of 4 doses) at 2.5 mg/kg or 10 mg/kg, or by IV injection twice weekly (BIW) at 20 mg/kg IVU. […] Tumors are measured twice weekly using a vernier caliper. […] Tumor size and body weight are measured approximately twice a week for the duration of the study. […] Tumor growth continued to be monitored after the dosing period in some studies. […] Average tumor volume is reported as a function of time for selected groups of selected studies in Figures A, B, and C. Measurements from day 0 to 18, 21 or 22 are analyzed as specified in Tables 4-9. […] For each animal, the log tumor volume at day 0 is subtracted from the log tumor volume on the subsequent days. This difference vs. time is used to calculate an area under the curve (AUC) for each animal using the trapezoid rule. In instances when an animal in a treatment group is removed early from the study, the last observed tumor value is carried forward through all subsequent time points. […] The standard error of the synergy score is computed based on the variation in the AUC values among the animals. […] Otherwise, the combination is classified as antagonistic."}, "[2]": {"system": "PHTX249Pa xenograft model", "test": "Combination of gemcitabine and MLN4924 in PHTX249Pa xenograft model", "description": "as §5, with “PHTX249 Pa pancreatic” for “PHTX02B breast”, “pancreatic adenocarcinoma.” for “invasive ductal carcinoma classified as triple negative breast cancer (ER-/PR-/Her2-) by IHC.”"}, "NCI-H69 xenograft model [3]": {"system": "NCI-H69 xenograft model", "test": "Combination of carboplatin and MLN4924 in NCI-H69 xenograft model", "description": "(§6) NCI-H69 or NCI-H82 small cell lung tumor fragments (30- to 40-mg) are implanted into the subcutaneous space in the area of the right flank of NCr nu/nu mice (7-10 weeks, Charles River Laboratories, Inc, Frederick Md. or Wilmington, Mass.) using a 12-gauge trocar.\nas §4, §2, §3"}, "NCI-H69 xenograft model [4]": {"system": "NCI-H69 xenograft model", "test": "Combination of cisplatin and MLN4924 in NCI-H69 xenograft model", "description": "as §6, §2, §3"}},
  "data": [
    {"molecule": "NS(=O)(=O)OC[C@@H]1C[C@@H](n2ccc3c(N[C@H]4CCc5ccccc54)ncnc32)C[C@@H]1O", "note": "[MLN4924, ((1S,2S,4R)-4-(4-((1S)-2,3-dihydro-1H-inden-1-ylamino)-7H-pyrrolo[2,3-d]-pyrimidin-7-yl)-2-hydroxycyclopentyl)methyl sulfamate]", "values": [
      {"measurement": "tumor growth during the treatment period (in words)", "setting": "[1]; PHTX02B breast xenograft, FIG. 1, MLN4924 SC 60 mg/kg BID 5 days on/5 days off, docetaxel 5 mg/kg IV QW, single agents or their combination", "result": "inhibited tumor growth compared to the control vehicle group"},
      {"measurement": "average tumor volume day 21", "setting": "[1]; 30 mg/kg MLN4924 BID 5 on/5 off SC", "result": 1110.9, "unit": "mm^3"},
      {"measurement": "average tumor volume day 21", "setting": "[1]; 30 mg/kg MLN4924 BID SC", "result": 894.4, "unit": "mm^3"},
      {"measurement": "average tumor volume day 21", "setting": "[1]; 60 mg/kg MLN4924 BID 5 on/5 off SC", "result": 532.2, "unit": "mm^3"},
      {"measurement": "average tumor volume day 21", "setting": "LU1143 xenograft model", "result": 801.2, "unit": "mm^3"},
      {"measurement": "average tumor volume day 22", "setting": "PHTX02B xenograft model; 30 mg/kg MLN4924 BID SC", "result": 647.4, "unit": "mm^3"},
      {"measurement": "tumor growth during the treatment period (in words)", "setting": "PHTX02B xenograft model; FIG. 2, MLN4924 SC 30 mg/kg BID, gemcitabine 10 mg/kg IP q3dx4, single agents or their combination", "result": "inhibited tumor growth compared to the control vehicle group"},
      {"measurement": "average tumor volume day 18", "setting": "[2]; PHTX249Pa xenograft, 90 mg/kg MLN4924 BID BIW SC", "result": 1748.9, "unit": "mm^3"},
      {"measurement": "tumor growth compared to the control vehicle group (in words)", "setting": "[2]; PHTX249 Pa xenograft, gemcitabine 20 mg/kg IV BIW, MLN4924 90 mg/kg SC BID BIW, single agents or their combination", "result": "did not show growth inhibition compared to the control vehicle group"},
      {"measurement": "average tumor volume day 21", "setting": "NCI-H69 xenograft model [3]; 60 mg/kg MLN4924 BID Q3D x 2/week SC", "result": 597.1, "unit": "mm^3"},
      {"measurement": "average tumor volume day 21", "setting": "NCI-H69 xenograft model [3]; 120 mg/kg MLN4924 BID Q3D x 2/week SC", "result": 415.2, "unit": "mm^3"},
      {"measurement": "tumor growth during the treatment period (in words)", "setting": "NCI-H69 xenograft model [3]; FIG. 3, MLN4924 SC 120 mg/kg BID Q3Dx2/week, carboplatin 50 mg/kg IP QW, single agents or their combination", "result": "inhibited tumor growth compared to the control vehicle group"},
      {"measurement": "average tumor volume day 22", "setting": "NCI-H69 xenograft model [4]; 45 mg/kg MLN4924 BID Q3Dx2/week SC", "result": 438.5, "unit": "mm^3"},
      {"measurement": "average tumor volume day 22", "setting": "NCI-H69 xenograft model [4]; 60 mg/kg MLN4924 BID Q2Dx3/week SC", "result": 475.4, "unit": "mm^3"}
    ]}
  ]
}
